Laboratory results published in patent US11648199B2 (AI Therapeutics, Inc, priority 2014, dated 2023).
“And” between values parts separate entries of the source, which are not always exact repeats. Equal entries are not always repeated. “Also recorded” adds a separate entry of the source. Where two headings read alike, the source gives them in different places.

Legend:
[1] = Rapamycin in lung and blood by LC-MS/MS after oropharyngeal aspiration (OPA) or oral gavage; assay type: in vivo, male C57BL/6 mice
Protocol: Test Chemical Preparation: Evans Blue was prepared at 0.5% w/v in sterile distilled water. Rapamune Oral® was administered as supplied for oral dosing.
Dosing: Each animal was weighed prior to dosing to determine the amount of dose to be administered. A single gavage dose was administered using a […], glass syringe (Hamilton, Reno, Nev.) fitted with a ball-tipped 20-G stainless steel gavage dosing needle (Popper & Sons Inc., New Hyde Park, N.Y.). The dose administered to each animal was determined from the weight of the full syringe minus that of the empty syringe. The dosing time was recorded. Dosing of animals was spaced apart to allow blood collection at the appropriate times. The dose formulations administered to each group are shown below.
Each mouse was anesthetized with isoflurane, and restrained with the mouth open. The tongue was held to one side of the mouth with forceps, and the dose was slowly injected into the distal part of the oral cavity. The nostrils were covered with a finger for two breaths to ensure aspiration (Rao et al., 2003).
Collection of Blood and Lung Samples: At study termination (1 or 72 h after dosing), mice were anesthetized by exposure to CO2, and blood was collected by cardiac puncture with dipotassium EDTA as anticoagulant. Lung tissue was excised and divided into the right and left lung. The left lung was used for analysis, and the right lung flash frozen in liquid nitrogen and stored at −70° C. for further analysis.
Triamcinolone was used as internal standard.
Lung homogenate was prepared by homogenization of weighed lung samples with 2.8-mm ball bearings in a homogenizer with tissue+deionized water (1:3 w/v) in a SPEX SamplePrep 2010 Geno/Grinder.
The concentrations of standards were arranged so that each standard came from an alternate stock standard. A six-point calibration curve, each made in triplicate, was employed for analyte quantitation. A simple linear regression model with or without weighting was employed for curve fitting. The concentration range determined was from 1-2000 ng/mL in blood and 2-2000 ng/mL in lung homogenate.
Thirty (30) μL of matrix, 30 μL of spiking solution (methanol for blanks and samples), 10 μL Internal standard solution (in MeOH) and 90 μL of MeOH were pipetted into microcentrifuge tubes, vortexed briefly, then centrifuged for 6 min at 10,000 RPM at −4° C. Aliquots (90 μL) of supernatant were transferred to LC vial inserts, and then analyzed by LC-MS/MS (Table 2).

[2] = 28-day repeat dose inhalation toxicokinetics, study 7300227; assay type: in vivo, Beagle dogs; conditions: for concentration at 24 h: Beagle, dog, lung, read-out: Lung 24 hr trough levels; for Blood trough levels / Max blood levels: average of D28
Source text: For the dog study, a positive flow delivery system (PFDS) consisting of a central plenum and delivery arms was utilized. The central plenum was of modular design with separate ports into which were attached 5 delivery arms fitted with oronasal exposure masks fitted with inlet and outlet tubes. The mask was fitted over the dog's muzzle in such a way that the nose was inside the mask, allowing entrance and exit of air. During exposure, animals wore a harness and were placed on a restraint platform. The harness was attached to two side poles on the platform in order to restrict lateral movement of the dog. The front part of the harness was loosely attached to a hook on the front of the platform to prevent the animal from turning around. […] For each dosing group, one set of animals (N=6) was dosed for 60 minutes each day for 28 consecutive days.

[3] = Particle size distribution by laser diffraction after size reduction; assay type: physicochemical
Protocol: For jet milling, a lab scale MCOne unit from Jetpharma was used with the following operating conditions: venturi pressure 2-4 bar, milling pressure 3-5 bar, feed rate 90 g/h. For wet polishing, feed suspensions were prepared using purified water. A microfluidics high pressure homogenizer was used for the size reduction step and the resulting suspension was spray-dried. Details of the wet polishing process are set forth below.
The high pressure homogenizer used for the size reduction step of the wet polishing process was a pilot-scale Microfluidics High Pressure Homogenizer equipped with an auxiliary processing module (200 micron) and a 100 micron interaction chamber was used. The unit was operated at ˜455 bar (˜30 bar in the intensifier module hydraulic pressure). After microfluidization the fluid was removed by spray drying to generate a dry powder. A laboratory scale spray dryer, SD45 (BÜCHI, model B-290 Advanced) was equipped with a two fluid nozzle (cap and diameter were 1.4 and 0.7 mm, respectively). Two cyclones in series were used (being the first the standard Buchi cyclone and the second the high-performance Buchi cyclone) to collect the dried product. The spray drying unit was operated with nitrogen and in single pass mode, i.e. without recirculation of the drying nitrogen. The aspirator, blowing nitrogen, was set at 100% of its capacity (flow rate at maximum capacity is approximately 40 kg/h). The flow rate of the atomization nitrogen was adjusted to a value in the rotameter of 40±5 mm. Before feeding the product suspension, the spray dryer was stabilized with purified water, during which the flow rate was adjusted to 6 ml/min (20% in the peristaltic pump). The inlet temperature was adjusted to achieve the target outlet temperature (45° C.). After stabilization of the temperatures, the feed of the spray dryer was commuted from purified water to the product suspension (keeping the same flow rate used during stabilization) and the inlet temperature once again adjusted in order to achieve the target outlet temperature. At the end of the stock suspension, the feed was once more commuted to purified water in order to rinse the feed line and perform a controlled shut down. The dry product in the collection flasks under both cyclones was weighed and the yield calculated as the mass percentage of the dry product in relation to the total solids in the suspension fed to the high pressure homogenizer.
Particle size distribution was analyzed by laser diffraction. Solid state characterization (for polymorphic form and purity) was performed by high pressure liquid chromatography (HPLC), X-ray powder diffraction (XRPD), and differential scanning calorimetry (mDSC). Water content was determined by the Karl Fischer method.

[4] = emitted dose 160 ug, repeat inhaled daily dose 40 ug
[5] = emitted dose 424 ug, repeat inhaled daily dose 106 ug

CO[C@H]1C[C@@H]2CC[C@@H](C)[C@@](O)(O2)C(=O)C(=O)N2CCCC[C@H]2C(=O)O[C@H]([C@H](C)C[C@@H]2CC[C@@H](O)[C@H](OC)C2)CC(=O)[C@H](C)/C=C(\C)[C@@H](O)[C@@H](OC)C(=O)[C@H](C)C[C@H](C)/C=C/C=C/C=C/1C [Rapamycin, (3 S,6R,7E,9R,10R,12R,14S,15E,17E,19E,21S,23 S,26R,27R,34aS)-9,10,12,13,-14,21,22,23,24,25,26,27,32,33,34,34a-hexadecahydro-9,27-dihydroxy-3-[(1R)-2-[(1S,3R,4R)-4-hydroxy-3-methoxycyclohexyl]-1-methylethyl]-10,21-dimethox-y-6,8,12,14,20,26-hexamethyl-23,27-epoxy-3H-pyrido[2,1-c][1,4]oxaazacyclohentriacontine-1,5,11,28,29(4H,6H,31H)-pentone]
rapamycin in blood, in words ([1]; OPA 1 mg/kg, 72 h): below the limit of quantitation; also recorded: undetectable
Blood (ng/ml) ([1]; OPA 1 mg/kg, 72 h post-dose, individual mice): <ELOQ
Lung (ng/g tissue) ([1]; gavage (Rapamune Oral) 1 mg/kg, 1 h post-dose, individual mice, 1 mg/kg): <LOQ
rapamycin in lung or blood, in words ([1]; oral (gavage) 1 mg/kg, 72 hrs): undetectable
concentration at 24 h ([2]; inhaled, 106 ug): 61 ng/g
concentration at 24 h ([2]; emitted dose 160 ug, repeat inhaled daily dose 40 ug, after 28 days): 32 ng/g
Blood trough levels [2, 4]: 1.9 ng/mL
Max blood levels [2, 4]: 7.4 ng/mL
Blood trough levels [2, 5]: 5.9 ng/mL
Max blood levels [2, 5]: 27.3 ng/mL
PSD Dv10 ([3]; jet milling): 1.5 μm and 1.51 μm
PSD Dv50 ([3]; jet milling): 2.7 μm and 2.74 μm
PSD Dv90 ([3]; jet milling): 4.9 μm and 4.91 μm
PSD Dv10 ([3]; wet polishing): 1.51 μm
PSD Dv50 ([3]; wet polishing): 2.74 μm
PSD Dv90 ([3]; wet polishing): 5.0 μm and 4.91 μm
